Marks after values point to notes of the source that are not given here.
Key:
Type in all cases: in vivo
female SD rat [1] = experiment: Antagonistic (anti-estrogenic) activity of EGCG against bisphenol-A, immature rat uterine weight (Example 1(3)); conditions: BisA 800 mg/kg + EGCG 800 mg/kg oral at the same time
Protocol: (§1) A 17-days old female SD rat (purchased from Japan SLC) was received together with its mother, weaned at 20 days of age, and subjected to experiments from the next day. Five ml per kg body weight of EGCG (Sigma) or bisphenol-A (hereinafter referred to as BisA, Tokyo Kasei Kogyo) suspended in peanut oil (Nacalai Tesque) was administered orally and forcibly. Peanut oil was administered to a control rat in a similar manner. Administration was carried out once a day for three successive days. The uterine removed 24 hours after the last administration was weighed. BisA (800 mg/kg) and EGCG (800 mg/kg) were administered at the same time.

female SD rat [2] = experiment: Anti-estrogenic activity of solution of EGCG in ethanol, subcutaneous BisA, rat uterine weight (Example 5); conditions: for Uterine weight / Ratio: 30 minutes before BisA; for Ratio: vs control (100%)
Protocol: (§2) A 16-days old female SD rat (Japan SLC) was purchased together with its mother, weaned at 19 days of age, and subjected to experiments from the next day. BisA was weighed such that it would be administered at 40 mg/kg and dissolved in a small volume of ethanol. Peanut oil was added thereto to result in a final ethanol concentration of 5%. The resulting mixture was subcutaneously administered for three successive days. The uterine removed on the day after the third administration day was weighed. EGCG (200 mg/kg) was dissolved by adding ethanol and water was then added thereto to adjust the final ethanol concentration to 10 or 0%. The solution was orally administered 30 minutes before the administration of BisA.

female SD rat [3] = experiment: Effect of ethanol concentration on anti-estrogenic activity of EGCG, rat uterine weight (Example 4); conditions: for Uterine weight: 90 minutes before BisA; for Ratio: vs control (100%)
Protocol: as §2, with “10, 5, 1, 0.5” for “10”, “90” for “30”

female SD rat [4] = experiment: Agonistic (estrogenic) activity: immature rat uterine weight (Example 1(2)); conditions: for Uterine weight / Ratio: substance alone; for Uterine weight: once a day for 3 days, mean ± standard error; for Ratio: uterine weight vs control group (100%), 3 days
Protocol: as §1, with “or EGCG (80 or 800” for “(800”, “was administered. […]” for “and EGCG (800 mg/kg) were administered at the same time.”

female SD rat [5] = experiment: Anti-estrogenic activity of solution of EGCG in ethanol against 4-nonylphenol, rat uterine weight (Example 3); conditions: NP 50 mg/kg oral + EGCG 200 mg/kg oral in 10% ethanol
Protocol: A 16-days old female SD rat (Japan SLC) was purchased together with its mother, weaned at 19 days of age, and subjected to experiments from the next day.
4-Nonylphenol (hereinafter referred to as NP) was weighed such that it would be administered at 50 mg/kg and diluted by adding peanut oil thereto. The resulting mixture was orally administered for three successive days. The uterine removed on the day after the third administration day was weighed. EGCG was dissolved by adding ethanol and water was then added thereto to adjust the final ethanol concentration to 10%. The solution was orally administered 90 minutes before the administration of NP.

female SD rat [6] = experiment: Dose dependency of anti-estrogenic activity of solution of EGCG in ethanol, rat uterine weight (Example 6); conditions: for Uterine weight: 30 minutes before BisA; for Ratio: vs control (100%)
Protocol: as §2, with “subcutaneously or orally” for “subcutaneously”, “EGCG” for “EGCG (200 mg/kg)”, “10%.” for “10 or 0%.”

female SD rat [7] = experiment: Anti-estrogenic activity of solution of EGCG in ethanol against bisphenol-A, rat uterine weight (Example 2); conditions: for Uterine weight: 30 minutes before BisA; for Ratio: vs control (100%)
Protocol: A 17-days old female SD rat (purchased from Japan SLC) was received together with its mother, weaned at 20 days of age, and subjected to experiments from the next day. BisA was weighed such that it would be administered at 200 or 40 mg/kg and dissolved in a small volume of ethanol. Peanut oil was added thereto to result in a final ethanol concentration of 5%. The resulting mixture was orally administered for three successive days. The uterine removed on the next day was weighed. EGCG was dissolved by adding ethanol and water was then added thereto to adjust the final ethanol concentration to 10%. The solution was orally administered on the day before the administration of BisA and 30 minutes before each of the successive administrations of BisA.

[8] = BisA 40 mg/kg s.c. + EGCG 200 mg/kg oral in 0% ethanol
[9] = BisA 40 mg/kg s.c. + EGCG 200 mg/kg oral in 10% ethanol
[10] = BisA 40 mg/kg s.c. + EGCG 200 mg/kg oral in 0 % ethanol
[11] = BisA 40 mg/kg s.c. + EGCG 200 mg/kg oral in 0.5% ethanol
[12] = BisA 40 mg/kg s.c. + EGCG 200 mg/kg oral in 1 % ethanol
[13] = BisA 40 mg/kg s.c. + EGCG 200 mg/kg oral in 5 % ethanol
[14] = BisA 40 mg/kg s.c. + EGCG 200 mg/kg oral in 10 % ethanol
[15] = BisA 40 mg/kg oral + EGCG 40 mg/kg oral in 10% ethanol
[16] = BisA 40 mg/kg oral + EGCG 100 mg/kg oral in 10% ethanol
[17] = BisA 40 mg/kg subcutaneous + EGCG 40 mg/kg oral in 10% ethanol
[18] = BisA 40 mg/kg subcutaneous + EGCG 100 mg/kg oral in 10% ethanol
[19] = BisA 200 mg/kg oral + EGCG 100 mg/kg oral in 10% ethanol
[20] = BisA 200 mg/kg oral + EGCG 200 mg/kg oral in 10% ethanol

## O=C(O[C@@H]1Cc2c(O)cc(O)cc2O[C@@H]1c1cc(O)c(O)c(O)c1)c1cc(O)c(O)c(O)c1 [EGCG, epigallocatechin gallate]
Female SD rat [1]; in peanut oil, mean ± standard error
  Uterine weight: 43.0 ± 2.7 mg
Female SD rat [1]; vs control (100%)
  Ratio: 116%
Female SD rat [2]; [8]
  Uterine weight: 50.9 ± 2.2 mg
  Ratio: 165%
Female SD rat [2]; [9]
  Uterine weight: 36.4 ± 1.4 mg
  Ratio: 118%
Female SD rat [2]; BisA 40 mg/kg s.c. + EGCG 200 mg/kg oral without ethanol
  suppression of the increase in uterine weight (in words): the increase was not suppressed
Female SD rat [3]; [10]
  Uterine weight: 43.3 ± 1.8 mg
  Ratio: 161%
Female SD rat [3]; [11]
  Uterine weight: 40.9 ± 1.8 mg
  Ratio: 152%
Female SD rat [3]; [12]
  Uterine weight: 40.1 ± 2.0 mg
  Ratio: 149%
Female SD rat [3]; [13]
  Uterine weight: 37.6 ± 1.8 mg
  Ratio: 140%
Female SD rat [3]; [14]
  Uterine weight: 37.0 ± 1.3 mg
  Ratio: 138%
Female SD rat [4]; EGCG alone, 80 or 800 mg/kg oral
  increased uterine weight (in words): did not result in increased uterine weight
Female SD rat [4]; 80 mg/kg oral in peanut oil
  Uterine weight: 42.2 ± 1.7 mg
Female SD rat [4]; 800 mg/kg oral in peanut oil
  Uterine weight: 39.3 ± 3.2 mg
Female SD rat [4]; 80 mg/kg oral
  Ratio: 104%
Female SD rat [4]; 800 mg/kg oral
  Ratio: 97%
Female SD rat [5]; 90 minutes before NP
  Uterine weight: 33.7 ± 1.9 mg
Female SD rat [5]; vs control (100%)
  Ratio: 109%
Female SD rat [6]; [15]
  Uterine weight: 34.8 ± 2.8 mg
  Ratio: 106%
Female SD rat [6]; [16]
  Uterine weight: 33.0 ± 4.4 mg
  Ratio: 101** %
Female SD rat [6]; [17]
  Uterine weight: 44.4 ± 1.5 mg
  Ratio: 136%
Female SD rat [6]; [18]
  Uterine weight: 39.6 ± 1.0 mg
  Ratio: 121*** %
Female SD rat [7]; [16]
  Uterine weight: 41.2 ± 2.2 mg
  Ratio: 95%
Female SD rat [7]; [19]
  Uterine weight: 47.4 ± 2.6 mg
  Ratio: 109%
Female SD rat [7]; [20]
  Uterine weight: 39.8 ± 4.5 mg
  Ratio: 92%

— patent EP1232756A1, “DRUGS, DRINKS OR FOODS” (Takara Shuzo Co, Ltd., priority 1999, dated 2001)
